“Also recorded” adds a separate entry of the source.

The target of series [1] is T1, BCRP (Homo sapiens, UniProt Q9UNQ0).
T1 construct: expressed in transfected cells; host or cells: MDCKII
T1 sequence (Q9UNQ0 1-655): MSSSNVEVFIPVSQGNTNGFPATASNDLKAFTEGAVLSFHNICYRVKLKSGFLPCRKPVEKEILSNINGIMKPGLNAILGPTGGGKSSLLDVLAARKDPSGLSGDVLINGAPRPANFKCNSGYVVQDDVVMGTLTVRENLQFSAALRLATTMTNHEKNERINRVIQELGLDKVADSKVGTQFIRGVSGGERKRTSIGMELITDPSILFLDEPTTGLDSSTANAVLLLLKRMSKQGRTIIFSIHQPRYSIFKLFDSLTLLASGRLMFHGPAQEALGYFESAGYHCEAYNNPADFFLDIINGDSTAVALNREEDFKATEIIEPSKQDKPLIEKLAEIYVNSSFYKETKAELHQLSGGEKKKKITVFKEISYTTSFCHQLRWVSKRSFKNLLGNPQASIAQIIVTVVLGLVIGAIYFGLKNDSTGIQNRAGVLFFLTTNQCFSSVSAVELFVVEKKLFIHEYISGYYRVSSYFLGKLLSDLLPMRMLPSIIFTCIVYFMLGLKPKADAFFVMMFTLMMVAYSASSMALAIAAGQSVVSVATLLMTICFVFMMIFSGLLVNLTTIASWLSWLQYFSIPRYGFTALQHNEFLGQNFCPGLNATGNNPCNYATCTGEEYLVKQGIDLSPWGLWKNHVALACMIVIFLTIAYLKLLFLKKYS
Kind of series: BCRP MDCKII permeability assay (efflux). The note with it: statement in background. In kind it is in vitro ADME. From the text:
(§1) Final organic concentration in the assay was 1%.
(§2) The efflux ratios for N-(2-chloro-3-((5-chloro-3-methyl-4-oxo-3,4-dihydroquinazolin-6-yl)amino)-4-fluorophenyl)-3-fluoroazetidine-1-sulfonamide (Compound 1) when tested in this assay were 2.1 (MDR1) and 4.2 (BCRP).

Series [2] has as its target T2, full-length FLAG-tagged B-Raf(V600E) (Homo sapiens, UniProt P15056, V600E).
T2 construct: 5 nM full-length, N-terminally FLAG-tagged B-Raf(V600E) (Origene Technologies, TP700031); purchased Origene Technologies TP700031
Description: BRAF V600E enzyme assay (TR-FRET competitive tracer displacement). In kind it is binding. The note with it: 60 min, ambient temperature. As for the experimental part:
A competitive displacement assay was configured for B-Raf that monitors the amount of a fluorescently-tagged “tracer” bound to B-Raf via TR-FRET from an anti-tag Eu-labeled antibody also bound to B-Raf. For full-length FLAG-tagged B-Raf(V600E), the assay mixtures consisted of 25 mM K^+HEPES, pH 7.4, 10 mM MgCl2, 0.01% Triton X-100, 1 mM DTT, 2% DMSO (from compound), 50 nM Tracer 1710 (ThermoFisher, PR9176A), 0.5 nM Eu anti-FLAG (M2)-cryptate Ab (Cisbio, 61FG2KLB) and 5 nM full-length, N-terminally FLAG-tagged B-Raf(V600E) (Origene Technologies, TP700031. N-(2-chloro-3-((5-chloro-3-methyl-4-oxo-3,4-dihydroquinazolin-6-yl)amino)-4-fluorophenyl)-3-fluoroazetidine-1-sulfonamide was diluted in DMSO across an 11-point dosing range created using a 3-fold serial dilution protocol at a top dose of 10 μM. The assay was run in 384-well, polystyrene, low-volume, non-treated, white microtiter plates (Costar 4512) in a final volume of 12 μL. Low control wells included 1 μM of a potent B-Raf inhibitor as a control. The assays were incubated at ambient temperature (typically 22° C.) for 60 min and then read on a PerkinElmer EnVision microplate reader using standard TRF settings (λEx=320 nm, λEm=615 & 665 nm). The ratioed counts (665 nm/615 nm) were converted to percent of control (POC) using the following equation:
[formula] • where: • xmax Average Uninhibited Controls • Xmin Average Background […]
Background: In TR-FRET formats the signal depends on donor and acceptor labels being close together.

A further series addresses T3, MDR1 (P-gp) (Homo sapiens, UniProt P08183).
T3 construct: expressed in transfected cells; host or cells: LLC-PK1
Kind of series: MDR1 LLC-PK1 permeability assay (efflux). In kind it is in vitro ADME. The conditions noted are these: statement in background.
Text: as §1, §2

The nature of series [3]: PK (free brain-to-free plasma ratio) (mouse). In kind it is in vivo. The conditions noted are these: male CD-1 mice, oral gavage 10 mg/kg, (B/P)*(Bfu/Pfu). As for the experimental part:
The ability of N-(2-chloro-3-((5-chloro-3-methyl-4-oxo-3,4-dihydroquinazolin-6-yl)amino)-4-fluorophenyl)-3-fluoroazetidine-1-sulfonamide (Compound 1) to penetrate the BBB in mice was determined by evaluating the unbound brain-to-unbound plasma (also referred to as free brain-to-free plasma) concentration ratio in male CD-1 mice.
Brain compound levels were generated from oral mouse PK dosing with typical sampling times of 2, 4, 8, 12 and 24 hours post oral gavage dosing at 10 mg/kg. Brain samples were stored at −20±5° C. prior to analysis. Concentrations of Compound 1 in mouse brain homogenate were determined by liquid chromatography tandem mass spectrometry (LC-MS/MS) following protein precipitation with acetonitrile. A 12-point calibration curve, ranging from 0.5 to 10,000 ng/mL, was prepared in duplicate. […]
Brain-to-plasma ratios were calculated using the concentration of Compound 1 measured in the brain divided by the concentration of compound measured in the plasma. […] Free brain-to-free plasma ratios were calculated by multiplying the brain-to-plasma ratio by the in vitro brain homogenate free fraction divided by the in vitro plasma free fraction using the following equation: (B/P)*(Bfu/Pfu). […]

The nature of series [4]: Physical stability analysis by PXRD. In kind it is physicochemical. The note with it: for physical stability under accelerated stability conditions: 70° C./75% relative humidity (RH) for 8 days. As for the experimental part: Powder X-ray Diffraction (PXRD) method for characteristic peak determination Powder X-ray diffraction analysis was conducted using a Bruker AXS D8 Endeavor diffractometer equipped with a Copper (Cu) radiation source. The divergence slit was set at 15 mm continuous illumination. Diffracted radiation was detected by a PSD-Lynx Eye detector, with the detector PSD opening set at 2.99 degrees. The X-ray tube voltage and amperage were set to 40 kV and 40 mA respectively. Data was collected in the Theta-Theta goniometer at the Cu wavelength (CuKα=[…]) from 3.0 to 40.0 degrees 2-Theta using a step size of 0.01 degrees and a step time of 1.0 second. The antiscatter screen was set to a fixed distance of 3.0 mm. Samples were rotated at 15/min during collection. Samples were prepared by placing them in a silicon low background sample holder and rotated during collection. Data were collected using Bruker DIFFRAC Plus software and analysis was performed by EVA diffract plus software. The PXRD data file was not processed prior to peak searching. Using the peak search algorithm in the EVA software, peaks selected with a threshold value of 1 were used to make preliminary peak assignments. To ensure validity, adjustments were manually made; the output of automated assignments was visually checked, and peak positions were adjusted to the peak maximum. Peaks with relative intensity of >3% were generally chosen. Typically, the peaks which were not resolved or were consistent with noise were not selected. A typical error associated with the peak position from PXRD stated in USP up to +/−0.2° 2-Theta (USP-941).
Table 5 details the differences between Form 1 and amorphous form.

A short description of series [5]: Hygroscopicity (DVS water sorption and desorption). In kind it is physicochemical. The conditions noted are these: for Hygroscopicity: DVS 0-90% RH; for Mass Gain at 25° C. and 60% RH / Mass Gain at 25° C. and 90% RH: DVS; for PXRD Post-DVS: solid form of powder remaining after DVS analysis. As for the experimental part:
Water sorption and desorption were analyzed with a DVS-Resolution. The microbalance was calibrated with a 100 mg standard weight on a monthly basis. About 8 mg of the compound was added to a sample pan and placed inside chamber A of the DVS-Resolution. Percent relative humidity was held at 0% for 1 hour, and increased to 90% in 10% increments, then ramped back to 0% in 10% increments. […] The powder material remaining following the DVS analysis was analyzed by PXRD to determine if a change in the diffraction pattern is observed.

Series [6] has as its target T4, BCRP (Mus musculus, UniProt Q7TMS5).
T4 sequence (Q7TMS5 1-657): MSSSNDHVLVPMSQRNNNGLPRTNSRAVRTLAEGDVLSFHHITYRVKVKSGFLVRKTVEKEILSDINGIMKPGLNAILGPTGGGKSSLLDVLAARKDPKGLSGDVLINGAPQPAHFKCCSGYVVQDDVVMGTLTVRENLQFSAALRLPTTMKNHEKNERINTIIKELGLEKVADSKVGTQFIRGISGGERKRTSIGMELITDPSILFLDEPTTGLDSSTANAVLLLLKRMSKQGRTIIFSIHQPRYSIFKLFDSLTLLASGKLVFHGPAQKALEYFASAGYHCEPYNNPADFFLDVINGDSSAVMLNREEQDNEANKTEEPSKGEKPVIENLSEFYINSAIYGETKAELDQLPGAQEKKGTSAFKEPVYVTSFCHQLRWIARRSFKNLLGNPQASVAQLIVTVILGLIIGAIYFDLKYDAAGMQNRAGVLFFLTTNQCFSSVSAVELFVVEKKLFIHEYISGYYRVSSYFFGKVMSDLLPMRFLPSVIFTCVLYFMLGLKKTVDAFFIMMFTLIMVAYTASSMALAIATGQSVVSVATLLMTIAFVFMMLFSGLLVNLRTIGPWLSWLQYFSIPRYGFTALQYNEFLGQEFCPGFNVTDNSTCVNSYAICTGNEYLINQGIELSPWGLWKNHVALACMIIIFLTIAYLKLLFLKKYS
The note with it: reported by Mittapalli et al.; cited from earlier work.

T2 sequence (P15056 whole entry V600E): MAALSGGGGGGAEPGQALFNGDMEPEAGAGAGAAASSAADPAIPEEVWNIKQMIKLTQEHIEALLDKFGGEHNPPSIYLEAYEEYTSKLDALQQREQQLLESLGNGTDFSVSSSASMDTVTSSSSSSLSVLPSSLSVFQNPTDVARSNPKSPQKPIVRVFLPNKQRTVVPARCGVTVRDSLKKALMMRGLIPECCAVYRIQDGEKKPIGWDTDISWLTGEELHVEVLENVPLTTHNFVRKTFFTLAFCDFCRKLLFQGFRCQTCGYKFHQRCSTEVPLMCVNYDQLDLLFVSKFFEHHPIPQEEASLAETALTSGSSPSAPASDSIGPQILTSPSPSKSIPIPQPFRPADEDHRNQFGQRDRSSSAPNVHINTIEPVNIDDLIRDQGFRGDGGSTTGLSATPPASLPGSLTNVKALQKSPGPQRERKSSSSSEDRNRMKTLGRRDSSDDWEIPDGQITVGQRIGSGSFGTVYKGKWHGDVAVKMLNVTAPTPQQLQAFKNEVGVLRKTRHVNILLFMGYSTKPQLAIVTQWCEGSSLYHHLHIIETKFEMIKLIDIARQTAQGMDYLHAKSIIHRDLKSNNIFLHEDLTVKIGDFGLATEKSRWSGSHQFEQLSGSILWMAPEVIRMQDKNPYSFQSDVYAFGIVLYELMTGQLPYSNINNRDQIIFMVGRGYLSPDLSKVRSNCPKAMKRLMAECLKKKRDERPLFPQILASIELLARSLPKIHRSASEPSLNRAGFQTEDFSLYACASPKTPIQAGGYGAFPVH
T3 sequence (P08183 whole entry, species assumed): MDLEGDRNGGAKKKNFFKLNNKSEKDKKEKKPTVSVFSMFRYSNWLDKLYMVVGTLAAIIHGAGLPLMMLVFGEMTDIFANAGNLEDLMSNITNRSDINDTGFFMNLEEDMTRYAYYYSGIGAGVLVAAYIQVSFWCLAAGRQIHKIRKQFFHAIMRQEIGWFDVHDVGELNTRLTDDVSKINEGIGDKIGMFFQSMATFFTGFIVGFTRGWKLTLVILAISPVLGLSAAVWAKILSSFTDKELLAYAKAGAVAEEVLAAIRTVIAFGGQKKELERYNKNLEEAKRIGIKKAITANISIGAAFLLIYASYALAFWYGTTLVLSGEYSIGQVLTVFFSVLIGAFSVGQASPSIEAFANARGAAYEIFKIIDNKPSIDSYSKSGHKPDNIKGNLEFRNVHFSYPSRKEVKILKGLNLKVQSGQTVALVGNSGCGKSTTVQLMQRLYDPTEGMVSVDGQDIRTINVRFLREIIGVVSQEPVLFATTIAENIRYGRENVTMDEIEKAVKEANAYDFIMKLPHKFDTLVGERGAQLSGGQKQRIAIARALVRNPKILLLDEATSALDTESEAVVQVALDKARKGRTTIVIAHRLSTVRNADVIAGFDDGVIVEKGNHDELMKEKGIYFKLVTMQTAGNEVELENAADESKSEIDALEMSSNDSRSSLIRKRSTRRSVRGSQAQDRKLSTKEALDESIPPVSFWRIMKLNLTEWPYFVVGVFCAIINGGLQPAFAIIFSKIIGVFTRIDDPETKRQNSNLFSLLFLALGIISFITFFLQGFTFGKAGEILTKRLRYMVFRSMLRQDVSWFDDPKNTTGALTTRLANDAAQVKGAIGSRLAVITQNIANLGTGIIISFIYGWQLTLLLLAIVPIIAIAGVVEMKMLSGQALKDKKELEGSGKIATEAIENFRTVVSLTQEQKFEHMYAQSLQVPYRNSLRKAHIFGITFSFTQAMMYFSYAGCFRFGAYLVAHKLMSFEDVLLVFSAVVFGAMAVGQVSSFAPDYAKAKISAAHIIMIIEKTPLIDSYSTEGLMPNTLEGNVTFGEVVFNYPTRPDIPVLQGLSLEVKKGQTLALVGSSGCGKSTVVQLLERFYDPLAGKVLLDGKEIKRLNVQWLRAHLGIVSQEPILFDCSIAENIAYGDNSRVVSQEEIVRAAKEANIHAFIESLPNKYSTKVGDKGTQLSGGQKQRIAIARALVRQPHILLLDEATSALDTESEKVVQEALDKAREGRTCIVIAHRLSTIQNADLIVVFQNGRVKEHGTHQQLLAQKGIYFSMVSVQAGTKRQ

By IC50 is commonly meant the midpoint of a concentration-inhibition curve. Low readings indicate greater potency, high ones weaker potency. As to `Cn1cnc2ccc(Nc3c(F)ccc(NS(=O)(=O)N4CC(F)C4)c3Cl)c(Cl)c2c1=O` [Compound 1, N-(2-chloro-3-((5-chloro-3-methyl-4-oxo-3,4-dihydroquinazolin-6-yl)amino)-4-fluorophenyl)-3-fluoroazetidine-1-sulfonamide], the “substrate of active transporter breast cancer resistance protein (BCRP)” value on BCRP [1] was “not a substrate”. The compound also displayed an IC50 in series [2] of 3 nM. Besides, on MDR1 (P-gp), the “substrate of active transporter P-glycoproteins (P-gp)” value is given as “not a substrate”. In addition, the Kp,uu (unbound brain-to-unbound plasma ratio) in series [3] fell in the range of 0.12 to 0.17.
`Cn1cnc2ccc(Nc3c(F)ccc(NS(=O)(=O)N4CC(F)C4)c3Cl)c(Cl)c2c1=O` [amorphous Compound 1, Form 2, amorphous N-(2-chloro-3-((5-chloro-3-methyl-4-oxo-3,4-dihydroquinazolin-6-yl)amino)-4-fluorophenyl)-3-fluoroazetidine-1-sulfonamide, Form 2]: the “physical stability under accelerated stability conditions” value in series [4] is “crystallized to crystalline anhydrous Compound 1, Form 1”. Besides, the “Solid form identified by PXRD after 8 days” value (“Solid form identified by PXRD” below) in series [4] (stored at 5° C.) is listed as “amorphous compound 1,”. Further, the “Solid form identified by PXRD” value in series [4] (stored at 70° C./75% RH) is reported as “crystalline anhydrous”. In addition, in series [5], the Hygroscopicity result was “hygroscopic”; the “Mass Gain at 25° C. and 90% RH” value is reported as “approximately 3.6%”. In series [5] (Form 2), the Hygroscopicity result is listed as “Hygroscopic”; the “Mass Gain at 25° C. and 60% RH” value is 1.7%; the “Mass Gain at 25° C. and 90% RH” value is given as 3.6%; the “PXRD Post-DVS” value is “amorphous Compound”.
On to `Cn1cnc2ccc(Nc3c(F)ccc(NS(=O)(=O)N4CC(F)C4)c3Cl)c(Cl)c2c1=O` [crystalline anhydrous Compound 1, Form 1, crystalline anhydrous N-(2-chloro-3-((5-chloro-3-methyl-4-oxo-3,4-dihydroquinazolin-6-yl)amino)-4-fluorophenyl)-3-fluoroazetidine-1-sulfonamide, Form 1], for which, in series [4], the “physical stability under accelerated stability conditions” value is on record as “stable”. In addition, in series [4] (stored at 5° C.), the “Solid form identified by PXRD” value was “crystalline anhydrous”. Besides, the “Solid form identified by PXRD” value in series [4] (stored at 70° C./75% RH) is reported as “crystalline anhydrous”. In series [5], the Hygroscopicity result is given as “not hygroscopic; also recorded: Non-Hygroscopic”; the “Mass Gain at 25° C. and 60% RH” value came to 0.0%; the “Mass Gain at 25° C. and 90% RH” value is recorded as 0.0%; the “PXRD Post-DVS” value is recorded as “crystalline anhydrous”.
For `CC(C)(C)c1nc(-c2cccc(NS(=O)(=O)c3c(F)cccc3F)c2F)c(-c2ccnc(N)n2)s1` [dabrafenib], at BCRP [6], the BCRP efflux ratio is reported as 21.0.
As to `CCCS(=O)(=O)Nc1ccc(F)c(C(=O)c2c[nH]c3ncc(-c4ccc(Cl)cc4)cc23)c1F` [vemurafenib], the BCRP efflux ratio at BCRP [6] is given as 495.

Source of the values: patent publication US20250011304A1, “CRYSTALLINE FORM OF N-(2-CHLORO-3-((5-CHLORO-3-METHYL-4-OXO-3,4-DIHYDROQUINAZOLIN-6-YL)AMINO)-4-FLUOROPHENYL)-3-FLUOROAZETIDINE-1-SULFONAMIDE” (Array BioPharma Inc., priority 2021, published 2025).
